The structures appear in SMILES notation. Active and inactive are the calls of the source. A value given as a limit tells only on which side of the number the result lay.

The nature of assay [1]: non-specific 3'UTR reporter inhibition in Clone20-Shn3RL – cell-based, Renilla luciferase, cherry-picked, counter-screen for Shn3 inhibitor project, dose response (AID 624133). It is filed as functional.
Assay [2] addresses Wee1-like protein kinase (Homo sapiens, UniProt P30291). Kind of assay: Dose Response Cell-based Assay for Inhibitors of Wee1 Degradation. [Related pubchem assays: 1410, 1321 ]. Type of assay: functional.
The target in assay [3] is T1, Sentrin-specific protease 8 (Homo sapiens, UniProt Q96LD8).
T1 sequence (Q96LD8 whole entry): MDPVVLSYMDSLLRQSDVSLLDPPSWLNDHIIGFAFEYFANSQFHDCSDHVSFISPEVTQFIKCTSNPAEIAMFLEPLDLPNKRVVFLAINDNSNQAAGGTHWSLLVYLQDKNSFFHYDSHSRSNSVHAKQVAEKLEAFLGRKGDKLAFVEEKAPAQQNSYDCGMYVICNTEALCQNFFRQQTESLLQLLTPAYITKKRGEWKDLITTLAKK
Type of assay: functional.

Assay [4] concerns the target T2, Histone-lysine N-methyltransferase NSD2 (Homo sapiens, UniProt O96028).
T2 sequence (O96028 whole entry): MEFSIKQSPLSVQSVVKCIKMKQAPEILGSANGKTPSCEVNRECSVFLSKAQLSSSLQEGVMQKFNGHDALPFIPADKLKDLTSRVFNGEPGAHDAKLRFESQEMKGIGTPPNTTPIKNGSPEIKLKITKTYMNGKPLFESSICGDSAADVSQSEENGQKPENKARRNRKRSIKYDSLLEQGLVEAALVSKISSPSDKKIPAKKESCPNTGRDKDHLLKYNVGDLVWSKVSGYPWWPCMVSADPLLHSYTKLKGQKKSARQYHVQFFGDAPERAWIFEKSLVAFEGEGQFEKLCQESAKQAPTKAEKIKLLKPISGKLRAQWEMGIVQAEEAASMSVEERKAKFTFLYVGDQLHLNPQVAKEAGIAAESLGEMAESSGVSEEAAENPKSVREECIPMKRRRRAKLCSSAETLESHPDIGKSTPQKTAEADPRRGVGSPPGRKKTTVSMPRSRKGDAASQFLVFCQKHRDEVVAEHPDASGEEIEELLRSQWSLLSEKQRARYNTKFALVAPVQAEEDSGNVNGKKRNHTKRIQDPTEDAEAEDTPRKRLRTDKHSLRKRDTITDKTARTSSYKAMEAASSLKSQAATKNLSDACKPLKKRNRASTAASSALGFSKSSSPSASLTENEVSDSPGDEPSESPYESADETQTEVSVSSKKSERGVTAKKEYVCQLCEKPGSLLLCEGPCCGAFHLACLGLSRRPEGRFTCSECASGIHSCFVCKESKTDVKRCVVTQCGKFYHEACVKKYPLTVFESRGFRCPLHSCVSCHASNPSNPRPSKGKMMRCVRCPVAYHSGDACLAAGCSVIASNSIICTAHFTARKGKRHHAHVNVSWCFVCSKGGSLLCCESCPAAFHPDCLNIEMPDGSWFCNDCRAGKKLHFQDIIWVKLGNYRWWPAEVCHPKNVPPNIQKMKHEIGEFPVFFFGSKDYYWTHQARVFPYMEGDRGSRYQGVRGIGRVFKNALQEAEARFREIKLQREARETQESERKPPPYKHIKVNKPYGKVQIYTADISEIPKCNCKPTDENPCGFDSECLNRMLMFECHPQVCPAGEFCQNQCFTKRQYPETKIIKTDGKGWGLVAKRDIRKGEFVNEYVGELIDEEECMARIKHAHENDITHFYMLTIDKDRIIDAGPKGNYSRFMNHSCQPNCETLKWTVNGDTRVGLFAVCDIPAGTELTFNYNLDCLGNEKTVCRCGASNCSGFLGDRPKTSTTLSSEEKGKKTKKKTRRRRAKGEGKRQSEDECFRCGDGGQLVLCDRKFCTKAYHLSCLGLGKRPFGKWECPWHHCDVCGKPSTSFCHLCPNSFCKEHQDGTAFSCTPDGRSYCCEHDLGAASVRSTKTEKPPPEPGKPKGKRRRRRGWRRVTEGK
Type of assay: biochemical.

Sequence of Wee1-like protein kinase (P30291 whole entry): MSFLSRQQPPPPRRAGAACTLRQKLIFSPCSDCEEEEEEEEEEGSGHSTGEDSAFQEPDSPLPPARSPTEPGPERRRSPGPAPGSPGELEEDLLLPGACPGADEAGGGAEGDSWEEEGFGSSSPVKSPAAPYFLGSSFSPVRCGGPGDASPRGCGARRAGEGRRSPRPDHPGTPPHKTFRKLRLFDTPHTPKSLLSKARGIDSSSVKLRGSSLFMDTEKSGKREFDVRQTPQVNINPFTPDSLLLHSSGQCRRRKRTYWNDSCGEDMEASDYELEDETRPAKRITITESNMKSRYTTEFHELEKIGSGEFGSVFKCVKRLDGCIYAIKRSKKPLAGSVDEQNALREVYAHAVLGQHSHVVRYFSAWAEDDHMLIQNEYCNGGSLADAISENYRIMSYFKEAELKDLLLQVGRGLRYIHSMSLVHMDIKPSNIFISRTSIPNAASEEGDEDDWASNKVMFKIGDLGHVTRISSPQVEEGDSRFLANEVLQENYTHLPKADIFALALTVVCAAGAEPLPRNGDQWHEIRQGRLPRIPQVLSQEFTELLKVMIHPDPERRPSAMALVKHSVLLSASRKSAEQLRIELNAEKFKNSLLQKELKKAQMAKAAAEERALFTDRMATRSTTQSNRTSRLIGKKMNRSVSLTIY

On to `COc1ccc(NC(=O)/C(Cl)=C(/Cl)[S+]([O-])Cc2ccccc2)cn1` (centres undefined), for which the AC50 in assay [1] is < 260 nM (active). For the same compound, the EC50 in assay [2] was > 49700 nM (not active).
Consider `Nc1ccc(N2CCCCC2)c2nonc12`, for which, in assay [3], the IC50 is 1060 nM (active).
In the case of `Cc1ccc(S(=O)(=O)/N=C2\C=C(Nc3cccc(C(=O)O)c3)C(=O)c3ccccc32)c(C)c1`, in assay [4], the AC50 was 255 nM (active).

These data come from ChEMBL document CHEMBL1201862, “PubChem BioAssay data set” (2004).
